The record followed here is ChEMBL document CHEMBL1150550, “A novel condensed tropone-isoquinoline alkaloid, pareitropone, from Cissampelos pareira” (Bioorg Med Chem Lett, 1995).

The term IC50 denotes the concentration needed to halve the response being measured. A low value points to inhibition by little substance.

This test has as its system P388. In words: Cytotoxicity against cultured p-388 cells. It is filed as functional, cell-based. The conditions noted are these: Mus musculus.

In brackets after ≈: the same amount, converted by molar mass.

The molecule `COc1c(OC)c2c3c(nccc3c1OC)-c1cc(OC)c(=O)ccc1-2` returned a concentration for half-maximal inhibition (IC50) of 1.2 mg/L (≈ 3.42 µM). In the case of `COc1c(OC)c2c3c(nccc3c1OC)-c1cc(O)c(=O)ccc1-2` [GRANDIRUBRINE], the IC50 amounted to 0.18 mg/L (≈ 0.534 µM). In the case of `COc1cc2ccnc3c2c(c1OC)-c1ccc(=O)ccc1-3` [PAREITROPONE] it was 0.0008 mg/L (≈ 0.00275 µM).
